Laboratory results reported in patent US9440969B2, “Compounds and methods for kinase modulation, and indications therefor” (PLEXXIKON INC., priority 2009, dated 2016).

What was measured:
[1] = Relative solubility by turbidity in aqueous buffers (pH 1.5, 4.5, 6.8, 7.4); format: physicochemical; conditions: for turbidity threshold (L, M, H) 1.4: pH 1.5 buffer (SGF); for turbidity threshold (L, M, H) 4.5: pH 4.5 buffer (SIF); for turbidity threshold (L, M, H) 6.8: pH 6.8 buffer (SIF); for turbidity threshold (L, M, H) 7.4: pH 7.4 buffer (HEPES)
Protocol: As an indication of relative solubility, the turbidity of compounds in aqueous solutions is assessed. To assess possible compound properties in different physiological compartments, such as stomach, intestine, and blood, a series of aqueous buffers with varying pH is used. Thus each compound is diluted into four different physiologically relevant buffers and solution turbidity is measured by spectrophotometry.
Compounds are dissolved at a concentration of 25 mM in dimethyl sulfoxide, then serially diluted 1:1 into a 96 well plate, diluting 10 times in pure dimethyl sulfoxide, with the final well of each row a dimethyl sulfoxide blank. In an assay plate, 99 μL of appropriate buffer is added to each well, and 1 μL of each sample dilution is added to the buffer, achieving a range of final total concentrations in aqueous solutions having different pH. The buffers used are Simulated Gastric Fluid (SGF-pH 1.5) 0.5M NaCl, pH 1.5; Simulated Intestinal fluid (SIF-pH 4.5 and pH 6.8) 0.05M NaH2PO4, pH 4.5 and 6.8; and Hepes Buffer (HEPES-pH 7.4) 10 mM HEPES, 150 mM NaCl, pH 7.4. Control compounds pyrene, estriol and propranolol HCl are also assessed. Plates are spun and then mixed for 1 minute, and the absorbance is read using a Tecan Safire II to read wavelengths in the visible range (490, 535, and 650 nm) at four locations per well, reflecting the degree of turbidity present. The average optical density for each wavelength in each well is graphed vs. compound concentration, and the concentration at which the curve crosses a threshold O.D. of 0.01 for each wavelength is reported as the endpoint turbidity assay result. The average of the three wavelengths is used to compare turbidity of compounds. Compounds are considered to have low solubility if the threshold concentration is <31.3 μM, moderate solubility if the threshold concentration is 31.3 μM to 250 μM, and high solubility if the threshold concentration is >250 μM.
The following table indicates the relative solubility (L=low, M=moderate, H=high) based on turbidity threshold concentration at each pH for exemplary compounds according to the invention: […]

[2] = target: B-Raf V600E (Homo sapiens, UniProt P15056, V600E); experiment: B-Raf V600E kinase activity assay (AlphaScreen, biotin-MEK1 substrate); conditions: 100 μM ATP, 100 nM biotin-MEK1, 45 minutes at room temperature, read-out: Biochemical activity (IC50 μM) V600E
Sequence of B-Raf V600E (P15056 whole entry V600E): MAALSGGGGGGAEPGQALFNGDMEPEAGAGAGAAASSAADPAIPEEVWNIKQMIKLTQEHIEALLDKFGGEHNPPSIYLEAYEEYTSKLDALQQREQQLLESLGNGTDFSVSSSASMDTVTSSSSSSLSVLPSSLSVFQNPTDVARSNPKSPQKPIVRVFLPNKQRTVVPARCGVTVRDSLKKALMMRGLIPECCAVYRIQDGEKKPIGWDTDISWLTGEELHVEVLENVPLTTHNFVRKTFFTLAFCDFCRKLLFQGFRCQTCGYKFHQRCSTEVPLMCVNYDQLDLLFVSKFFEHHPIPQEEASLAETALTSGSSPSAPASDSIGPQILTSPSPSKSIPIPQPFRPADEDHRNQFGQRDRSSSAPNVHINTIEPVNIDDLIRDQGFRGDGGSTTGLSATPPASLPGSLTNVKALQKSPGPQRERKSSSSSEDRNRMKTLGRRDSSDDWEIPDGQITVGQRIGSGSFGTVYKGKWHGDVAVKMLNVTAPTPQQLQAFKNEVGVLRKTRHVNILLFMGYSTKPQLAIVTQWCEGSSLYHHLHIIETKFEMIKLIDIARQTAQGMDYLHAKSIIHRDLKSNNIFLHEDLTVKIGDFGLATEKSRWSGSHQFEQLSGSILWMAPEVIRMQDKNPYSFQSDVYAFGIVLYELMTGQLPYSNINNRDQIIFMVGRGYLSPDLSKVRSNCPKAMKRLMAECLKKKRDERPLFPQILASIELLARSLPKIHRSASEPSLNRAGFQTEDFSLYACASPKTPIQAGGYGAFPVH
Protocol: (§1) Assays for biochemical and cell based activity are known in the art, for example, as described in PCT publication WO 2007/002433, the disclosure of which is hereby incorporated by reference as it relates to such assays. For example, the biochemical activity IC50 values are determined with respect to inhibition of B-Raf kinase activity, c-Raf-1 kinase activity, or B-Raf V600E kinase activity, where inhibition of phosphorylation of a peptide substrate is measured as a function of compound concentration. Compounds to be tested are diluted in dimethyl sulfoxide to a concentration of 0.1 mM. These are serially diluted 15 μL into 30 μL of dimethyl sulfoxide seven times in 96 well plates for a total of 8 dilution points, and for each dilution point 1 μL is added to a well of an assay plate. Plates are prepared such that each well in a 384 well plate contains 1 μL of compound in 10 μL, volume with 0.1 ng Raf enzyme (i.e. any of B-Raf, c-Raf-1 or B-Raf V600E, Upstate Biotechnology or prepared by methods known to one of skill in the art), 50 mM HEPES, pH 7.0, 50 mM NaCl, 2 mM MgCl2, 1 mM MnCl2, 0.01% Tween-20, 1 mM DTT, and 100 nM biotin-MEK1 as substrate. The reaction is started with addition of 10 μL of 200 μM ATP (i.e. final 100 μM ATP). After incubation of the kinase reaction for 45 minutes at room temperature, 5 μL/well of Stop Solution is added (25 mM Hepes pH 7.5, 100 mM EDTA, 0.01% BSA with donor beads (Streptavidin coated beads, Perkin Elmer), acceptor beads (Protein A coated, Perkin Elmer), and anti phosphor MEK1/2 antibody (CellSignal), each at final concentration 10 μg/mL). The plates are incubated for 3 hours at room temperature and read on Envision reader (Perkin Elmer). Phosphorylation of Mek1 results in binding of the anti-phosphor-MEK1/2 antibody and association of the donor and acceptor beads such that signal correlates with kinase activity. The signal vs. compound concentration is used to determine the IC50.

[3] = target: B-Raf (Homo sapiens, UniProt P15056); experiment: B-Raf kinase activity assay (AlphaScreen, biotin-MEK1 substrate); conditions: 100 μM ATP, 100 nM biotin-MEK1, 45 minutes at room temperature; read-out: Biochemical activity (IC50 μM) B-Raf
Sequence of B-Raf (P15056 whole entry): as the sequence (P15056 whole entry V600E) above, with E600V counted along it
Protocol: as §1

Row | IC50 [2] [µM] | IC50 [3] [µM] | Compound | turbidity threshold (L, M, H) 1.4 [1] | turbidity threshold (L, M, H) 4.5 [1] | turbidity threshold (L, M, H) 6.8 [1] | turbidity threshold (L, M, H) 7.4 [1]
1 |  |  | CCCS(=O)(=O)Nc1ccc(F)c(C(=O)c2c[nH]c3ncc(-c4cnc(N5CCC5)nc4)cc23)c1F [P-1512, Propane-1-sulfonic acid {3-[5-(2-azetidin-1-yl-pyrimidin-5-yl)-1H-pyrrolo[2,3-b]pyridine-3-carbonyl]-2,4-difluoro-phenyl}-amide] | L (low solubility if the threshold concentration is <31.3 μM) | L (low solubility if the threshold concentration is <31.3 μM) | L (low solubility if the threshold concentration is <31.3 μM) | L (low solubility if the threshold concentration is <31.3 μM)
2 |  |  | CCCS(=O)(=O)Nc1ccc(F)c(C(=O)c2c[nH]c3ncc(-c4ccc5c(cnn5C)c4)cc23)c1F [P-0028, Propane-1-sulfonic acid {2,4-difluoro-3-[5-(1-methyl-1H-indazol-5-yl)-1H-pyrrolo[2,3-b]pyridine-3-carbonyl]-phenyl}-amide] | L (low solubility if the threshold concentration is <31.3 μM) | L (low solubility if the threshold concentration is <31.3 μM) | L (low solubility if the threshold concentration is <31.3 μM) | L (low solubility if the threshold concentration is <31.3 μM)
3 |  |  | CCCS(=O)(=O)Nc1ccc(F)c(C(=O)c2c[nH]c3ncc(-c4cnc(NCCOC)nc4)cc23)c1F [P-1505, Propane-1-sulfonic acid (2,4-difluoro-3-{5-[2-(2-methoxy-ethylamino)-pyrimidin-5-yl]-1H-pyrrolo[2,3-b]pyridine-3-carbonyl}-phenyl)-amide] | L (low solubility if the threshold concentration is <31.3 μM) | L (low solubility if the threshold concentration is <31.3 μM) | L (low solubility if the threshold concentration is <31.3 μM) | M (moderate solubility if the threshold concentration is 31.3 μM to 250 μM)
4 | < 10 | < 0.1 | CC(C)(C)OC(=O)N1CCC(n2cc(-c3cnc4[nH]cc(C(=O)c5c(F)ccc(NS(=O)(=O)c6ccc(C(F)(F)F)cc6)c5F)c4c3)cn2)CC1 [P-1003, 4-(4-{3-[2,6-Difluoro-3-(4-trifluoromethyl-benzenesulfonylamino)-benzoyl]-1H-pyrrolo[2,3-b]pyridin-5-yl}-pyrazol-1-yl)-piperidine-1-carboxylic acid tert-butyl ester] |  |  |  | 
5 |  |  | CCCS(=O)(=O)Nc1ccc(F)c(C(=O)c2c[nH]c3ncc(-c4cnc(NC5CC5)nc4)cc23)c1F [P-1504, Propane-1-sulfonic acid {3-[5-(2-cyclopropylamino-pyrimidin-5-yl)-1H-pyrrolo[2,3-b]pyridine-3-carbonyl]-2,4-difluoro-phenyl}-amide] | L (low solubility if the threshold concentration is <31.3 μM) | M (moderate solubility if the threshold concentration is 31.3 μM to 250 μM) | M (moderate solubility if the threshold concentration is 31.3 μM to 250 μM) | M (moderate solubility if the threshold concentration is 31.3 μM to 250 μM)
6 |  |  | CCCS(=O)(=O)Nc1ccc(F)c(C(=O)c2c[nH]c3ncc(-c4cnc(NCCN(C)C)nc4)cc23)c1F [P-1515, Propane-1-sulfonic acid (3-{5-[2-(2-dimethylamino-ethylamino)-pyrimidin-5-yl]-1H-pyrrolo[2,3-b]pyridine-3-carbonyl}-2,4-difluoro-phenyl)-amide] | L (low solubility if the threshold concentration is <31.3 μM) | M (moderate solubility if the threshold concentration is 31.3 μM to 250 μM) | M (moderate solubility if the threshold concentration is 31.3 μM to 250 μM) | M (moderate solubility if the threshold concentration is 31.3 μM to 250 μM)
7 |  |  | CCCS(=O)(=O)Nc1ccc(F)c(C(=O)c2c[nH]c3ncc(-c4cnc(NCCCOC)nc4)cc23)c1F [P-1516, Propane-1-sulfonic acid (2,4-difluoro-3-{5-[2-(3-methoxy-propylamino)-pyrimidin-5-yl]-1H-pyrrolo[2,3-b]pyridine-3-carbonyl}-phenyl)-amide] | L (low solubility if the threshold concentration is <31.3 μM) | L (low solubility if the threshold concentration is <31.3 μM) | L (low solubility if the threshold concentration is <31.3 μM) | L (low solubility if the threshold concentration is <31.3 μM)
8 |  |  | COCCNc1ncc(-c2cnc3[nH]cc(C(=O)c4c(F)ccc(NS(=O)(=O)c5cc(F)ccc5F)c4F)c3c2)cn1 [P-1507, N-(2,4-Difluoro-3-{5-[2-(2-methoxy-ethylamino)-pyrimidin-5-yl]-1H-pyrrolo[2,3-b]pyridine-3-carbonyl}-phenyl)-2,5-difluoro-benzenesulfonamide] | L (low solubility if the threshold concentration is <31.3 μM) | L (low solubility if the threshold concentration is <31.3 μM) | L (low solubility if the threshold concentration is <31.3 μM) | L (low solubility if the threshold concentration is <31.3 μM)
9 |  |  | CCCS(=O)(=O)Nc1ccc(F)c(C(=O)c2c[nH]c3ncc(-c4cnc(NC)nc4)cc23)c1F [P-1514, Propane-1-sulfonic acid {2,4-difluoro-3-[5-(2-methylamino-pyrimidin-5-yl)-1H-pyrrolo[2,3-b]pyridine-3-carbonyl]-phenyl}-amide] | L (low solubility if the threshold concentration is <31.3 μM) | L (low solubility if the threshold concentration is <31.3 μM) | M (moderate solubility if the threshold concentration is 31.3 μM to 250 μM) | L (low solubility if the threshold concentration is <31.3 μM)
10 |  |  | CCCS(=O)(=O)Nc1ccc(F)c(C(=O)c2c[nH]c3ncc(-c4ccc5cnn(C)c5c4)cc23)c1F [P-0027, Propane-1-sulfonic acid {2,4-difluoro-3-[5-(1-methyl-1H-indazol-6-yl)-1H-pyrrolo[2,3-b]pyridine-3-carbonyl]-phenyl}-amide] | L (low solubility if the threshold concentration is <31.3 μM) | L (low solubility if the threshold concentration is <31.3 μM) | L (low solubility if the threshold concentration is <31.3 μM) | L (low solubility if the threshold concentration is <31.3 μM)
